Drawing on ChEMBL document CHEMBL3865846, “Synthesis and biological evaluation of ricinoleic acid-based lipoamino acid derivatives” (Bioorg Med Chem Lett, 2016), this text covers MBC and MIC for nine compounds.

SMILES strings stand for the structures. In brackets after ≈: the same amount, converted by molar mass.

Holding throughout (type): functional
In experiment [1] the test system is Micrococcus luteus. The experiment in a line: Bactericidal activity against Micrococcus luteus MTCC2470 measured after 24 hrs. The note with it: MTCC2470, 24 h.
In experiment [2] the test system is Raoultella planticola. The experiment in a line: Antimicrobial activity against Klebsiella planticola MTCC530 measured after 24 hrs by well-diffusion method. Particulars: MTCC530, 24 h. (Agar diffusion results depend on both activity and mobility in agar.)
The subject of experiment [3] is Micrococcus luteus. The experiment in a line: Antimicrobial activity against Micrococcus luteus MTCC2470 measured after 24 hrs by well-diffusion method. The note with it: MTCC2470, 24 h.
For experiment [4], the system named is Escherichia coli. The experiment in a line: Antimicrobial activity against Escherichia coli MTCC739 measured after 24 hrs by well-diffusion method. Particulars: MTCC739, 24 h.
For experiment [5], the system named is Staphylococcus aureus. The experiment in a line: Bactericidal activity against Staphylococcus aureus MTCC96 measured after 24 hrs. Particulars: MTCC96, 24 h.
Experiment [6] relates to Bacillus subtilis. The experiment in a line: Bactericidal activity against Bacillus subtilis MTCC121 measured after 24 hrs. The note with it: MTCC121, 24 h.
Experiment [7] deals with Pseudomonas aeruginosa. The experiment in a line: Antimicrobial activity against Pseudomonas aeruginosa MTCCM2453 measured after 24 hrs by well-diffusion method. Particulars: MTCCM2453, 24 h.
Experiment [8] relates to Candida albicans. The experiment in a line: Antimicrobial activity against Candida albicans MTCC7315 measured after 24 hrs by well-diffusion method. Particulars: MTCC7315, 24 h.
The subject of experiment [9] is Candida albicans. The experiment in a line: Antimicrobial activity against Candida albicans MTCC3017 measured after 24 hrs by well-diffusion method. The note with it: MTCC3017, 24 h.
Experiment [10] concerns Candida albicans. The experiment in a line: Antimicrobial activity against Candida albicans MTCC1637 measured after 24 hrs by well-diffusion method. Particulars: MTCC1637, 24 h.
The test system of experiment [11] is Candida albicans. The experiment in a line: Antimicrobial activity against Candida albicans MTCC854 measured after 24 hrs by well-diffusion method. Particulars: MTCC854, 24 h.
Experiment [12] deals with Candida albicans. The experiment in a line: Antimicrobial activity against Candida albicans MTCC227 measured after 24 hrs by well-diffusion method. Particulars: MTCC227, 24 h.
For experiment [13], the system named is Staphylococcus aureus. The experiment in a line: Antimicrobial activity against Staphylococcus aureus MTCC96 measured after 24 hrs by well-diffusion method. Particulars: MTCC96, 24 h.
Experiment [14] relates to Staphylococcus aureus. The experiment in a line: Antimicrobial activity against Staphylococcus aureus MLS16 MTCC2940 measured after 24 hrs by well-diffusion method. Particulars: MLS16 MTCC2940, 24 h.
Experiment [15] deals with Candida albicans. The experiment in a line: Antimicrobial activity against Candida albicans MTCC3018 measured after 24 hrs by well-diffusion method. The note with it: MTCC3018, 24 h.
Experiment [16] deals with Candida albicans. The experiment in a line: Antimicrobial activity against Candida albicans MTCC4748 measured after 24 hrs by well-diffusion method. Particulars: MTCC4748, 24 h.
In experiment [17] the test system is Staphylococcus aureus. The experiment in a line: Bactericidal activity against Staphylococcus aureus MLS16 MTCC2940 measured after 24 hrs. The note with it: MLS16 MTCC2940, 24 h.
Experiment [18] deals with Candida albicans. The experiment in a line: Antimicrobial activity against Candida albicans MTCC183 measured after 24 hrs by well-diffusion method. Particulars: MTCC183, 24 h.
In experiment [19] the test system is Bacillus subtilis. The experiment in a line: Antimicrobial activity against Bacillus subtilis MTCC121 measured after 24 hrs by well-diffusion method. Particulars: MTCC121, 24 h.
Experiment [20] has as its system Candida albicans. The experiment in a line: Antimicrobial activity against Candida albicans MTCC3958 measured after 24 hrs by well-diffusion method. The note with it: MTCC3958, 24 h.
Experiment [21] has as its system Candida parapsilosis. The experiment in a line: Antimicrobial activity against Candida parapsilosis MTCC1744 measured after 24 hrs by well-diffusion method. Particulars: Lodderomyces parapsilosis, MTCC1744, 24 h.
Experiment [22] concerns Nakaseomyces glabratus. The experiment in a line: Antimicrobial activity against Candida glabrata MTCC3019 measured after 24 hrs by well-diffusion method. The note with it: MTCC3019, 24 h.
For experiment [23], the system named is Pichia kudriavzevii. The experiment in a line: Antimicrobial activity against Candida krusei MTCC3020 measured after 24 hrs by well-diffusion method. Particulars: MTCC3020, 24 h.
Experiment [24] concerns Pichia sporocuriosa. The experiment in a line: Antimicrobial activity against Issatchenkia hanoiensis MTCC4755 measured after 24 hrs by well-diffusion method. Particulars: MTCC4755, 24 h.

As for `CCCCCCC(C/C=C\CCCCCCCC(=O)OC)NC(=O)[C@@H]1CCCN1` (stereo not given in full), the MBC in experiment [1], in [5], in experiment [6] and in experiment [17] was 31.2 µg/mL (≈ 76.4 µM) throughout. For the same compound, the MIC (as a rule, the lowest concentration that inhibits growth of the organism) is over 125 µg/mL in experiment [2]; 15.6 µg/mL (≈ 38.2 µM) in experiment [3]; over 125 µg/mL in [4]; over 125 µg/mL in [7]; 31.2 µg/mL (≈ 76.4 µM) in experiment [8]; 31.2 µg/mL (≈ 76.4 µM) in experiment [9]. Moreover, the minimal inhibitory concentration (MIC) in [10] turned out to be 31.2 µg/mL (≈ 76.4 µM); in experiment [11] it was 31.2 µg/mL (≈ 76.4 µM); in experiment [12], 31.2 µg/mL (≈ 76.4 µM); in experiment [13], 15.6 µg/mL (≈ 38.2 µM); in experiment [14] it was 31.2 µg/mL (≈ 76.4 µM); in [15] it was 31.2 µg/mL (≈ 76.4 µM). Further, the MIC in experiment [16] is 31.2 µg/mL (≈ 76.4 µM); in experiment [18], 31.2 µg/mL (≈ 76.4 µM); in experiment [19] it was 15.6 µg/mL (≈ 38.2 µM); in [20], 31.2 µg/mL (≈ 76.4 µM).
Consider `CCCCCCC(C/C=C\CCCCCCCC(=O)OC)NC(=O)[C@@H](N)CC(C)C` (stereo not given in full), for which the minimal inhibitory concentration (MIC) in experiment [2], in experiment [3], in experiment [4], in experiment [7], in experiment [8] and in experiment [9] was over 125 µg/mL in each case. In addition, the minimal inhibitory concentration (MIC) in [10], in experiment [11], in [12], in [13], in experiment [14] and in experiment [15] was over 125 µg/mL in each case. The minimum inhibitory concentration (MIC) in experiment [16], in experiment [18], in experiment [19] and in experiment [20] was over 125 µg/mL in each case.
As to `CCCCCCC(C/C=C\CCCCCCCC(=O)OC)NC(=O)[C@@H](N)Cc1ccccc1` (stereo not given in full), the MIC in experiment [2], in [3], in [4], in experiment [7], in experiment [8] and in experiment [9] was over 125 µg/mL in each case. Further, the MIC in experiment [10], in experiment [11], in [12], in [13], in [14] and in [15] was over 125 µg/mL each time. The MIC in [16], in [18], in [19] and in experiment [20] was over 125 µg/mL in each case.
Regarding `CCCCCCC(C/C=C\CCCCCCCC(=O)OC)NC(=O)[C@@H](N)Cc1c[nH]c2ccccc12` (stereo not given in full), the minimum inhibitory concentration (MIC) in [2], in [3], in experiment [4], in [7], in [8] and in experiment [9] was over 125 µg/mL in each case. Moreover, the MIC in experiment [10], in experiment [11], in experiment [12], in experiment [13], in experiment [14] and in experiment [15] was over 125 µg/mL in each case. Moreover, the minimum inhibitory concentration (MIC) in experiment [16], in experiment [18], in experiment [19] and in [20] was over 125 µg/mL each time.
Take `CCCCCCC(C/C=C\CCCCCCCC(=O)OC)NC(=O)[C@@H](N)C(C)C` (stereo not given in full): the minimum inhibitory concentration (MIC) in experiment [2], in experiment [3], in experiment [4], in experiment [7], in experiment [8] and in [9] was over 125 µg/mL each time. In addition, the MIC in experiment [10], in [11], in experiment [12], in [13], in experiment [14] and in experiment [15] was over 125 µg/mL each time. Further, the MIC in experiment [16], in experiment [18], in experiment [19] and in experiment [20] was over 125 µg/mL throughout.
For `CCCCCCC(C/C=C\CCCCCCCC(=O)OC)NC(=O)[C@H](C)N` (stereo not given in full), the minimal bactericidal concentration (MBC) in experiment [1], in experiment [5], in experiment [6] and in experiment [17] was 15.6 µg/mL (≈ 40.8 µM) each time. Besides, the MIC in experiment [2] was over 125 µg/mL; in [3], 31.2 µg/mL (≈ 81.5 µM); in [4], over 125 µg/mL; in [7], over 125 µg/mL; in experiment [8] it was 15.6 µg/mL (≈ 40.8 µM); in [9] it was 15.6 µg/mL (≈ 40.8 µM). The MIC in experiment [10] worked out at 15.6 µg/mL (≈ 40.8 µM); in experiment [11] it was 15.6 µg/mL (≈ 40.8 µM); in [12], 15.6 µg/mL (≈ 40.8 µM); in experiment [21], 7.8 µg/mL (≈ 20.4 µM); in experiment [13] it was 7.8 µg/mL (≈ 20.4 µM); in [14], 15.6 µg/mL (≈ 40.8 µM). The minimum inhibitory concentration (MIC) worked out at 15.6 µg/mL (≈ 40.8 µM) in experiment [15]; 15.6 µg/mL (≈ 40.8 µM) in experiment [16]; 15.6 µg/mL (≈ 40.8 µM) in [18]; 15.6 µg/mL (≈ 40.8 µM) in [19]; 7.8 µg/mL (≈ 20.4 µM) in experiment [20].
As to `CCCCCCC(C/C=C\CCCCCCCC(=O)OC)NC(=O)[C@@H](N)[C@@H](C)CC` (stereo not given in full), the minimal inhibitory concentration (MIC) in experiment [2], in experiment [3], in experiment [4], in [7], in experiment [8] and in experiment [9] was over 125 µg/mL throughout. Further, the MIC in experiment [10], in [11], in experiment [12], in experiment [13], in experiment [14] and in experiment [15] was over 125 µg/mL each time. Moreover, the MIC in experiment [16], in [18], in experiment [19] and in experiment [20] was over 125 µg/mL in each case.
For `O=C(O)c1cn(C2CC2)c2cc(N3CCNCC3)c(F)cc2c1=O` [CIPROFLOXACIN], the MBC in experiment [1], in [5], in experiment [6] and in experiment [17] was 0.7 to 1.9 µg/mL (≈ 2.11 to 5.73 µM) each time. Moreover, the minimum inhibitory concentration (MIC) in [2], in [3], in [4], in experiment [7], in experiment [13] and in [14] was 0.9 µg/mL (≈ 2.72 µM) each time. This compound also yielded a minimal inhibitory concentration (MIC) in experiment [19] of 0.9 µg/mL (≈ 2.72 µM).
Take `Clc1ccc(COC(Cn2ccnc2)c2ccc(Cl)cc2Cl)c(Cl)c1` (stereo not given) [MICONAZOLE]: the minimum inhibitory concentration (MIC) in experiment [22], in [8], in [9], in [10], in [11] and in experiment [12] was 7.8 µg/mL (≈ 18.7 µM) in each case. In addition, the MIC in experiment [21], in experiment [15], in experiment [16], in experiment [23], in experiment [18] and in [20] was 7.8 µg/mL (≈ 18.7 µM) each time. The compound also showed a minimum inhibitory concentration (MIC) in experiment [24] of 7.8 µg/mL (≈ 18.7 µM).
